Source: PubChem BioAssay (NCI)
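96-well plates; 48 h exposure; 5 concentrations. Endpoints by linear interpolation between flanking doses. Not reached: highest tested concentration assigned. TGI: total growth inhibition.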

Legend:
Assay in all cases: NCI anticancer screen, dose series, 48 h
[1] = system: 786-0 renal
[2] = system: A498 renal
[3] = system: A549 NSCLC
[4] = system: ACHN renal
[5] = system: CCRF-CEM leukemia
[6] = system: COLO 205 colon
[7] = system: DLD-1 colon
[8] = system: DMS 114 small cell lung
[9] = system: DMS 273 small cell lung
[10] = system: EKVX NSCLC
[11] = system: HCC-2998 colon
[12] = system: HCT-116 colon
[13] = system: HCT-15 colon
[14] = system: HL-60(TB) leukemia
[15] = system: HOP-18 NSCLC
[16] = system: HOP-62 NSCLC
[17] = system: HOP-92 NSCLC
[18] = system: HT29 colon
[19] = system: IGROV1 ovarian
[20] = system: K-562 leukemia
[21] = system: KM20L2 colon
[22] = system: LXFL 529 NSCLC
[23] = system: M14 melanoma
[24] = system: M19-MEL melanoma
[25] = system: MALME-3M melanoma
[26] = system: MOLT-4 leukemia
[27] = system: NCI-H226 lung
[28] = system: NCI-H23 lung
[29] = system: NCI-H522 lung
[30] = system: OVCAR-4 ovarian
[31] = system: OVCAR-8 ovarian
[32] = system: RPMI-8226 leukemia
[33] = system: RXF 393 renal
[34] = system: SF-268 CNS
[35] = system: SF-295 CNS
[36] = system: SF-539 CNS
[37] = system: SK-MEL-28 melanoma
[38] = system: SK-MEL-5 melanoma
[39] = system: SK-OV-3 ovarian
[40] = system: SN12C renal
[41] = system: SNB-19 CNS
[42] = system: SNB-75 CNS
[43] = system: SNB-78 CNS
[44] = system: SR leukemia
[45] = system: SW-620 colon
[46] = system: U251 CNS
[47] = system: UACC-257 melanoma
[48] = system: UACC-62 melanoma
[49] = system: UO-31 renal
[50] = system: KM12 colon
[51] = system: LOX IMVI melanoma
[52] = system: NCI-H460 lung
[53] = system: OVCAR-3 ovarian
[54] = system: TK-10 renal
[55] = system: XF 498 CNS

Question: What does the source list for `CCCCCCCC(=O)OC[C@@H](C[As](=O)(O)O)OC(=O)CCCCCCC`?
Answer: TGI [1]: 24.7 µM; TGI [2]: 24 µM; TGI [3]: 19.3 µM; TGI [4]: 25.6 µM; TGI [5]: 9.55 µM; TGI [6]: 34.3 µM; TGI [7]: 27.5 µM; TGI [8]: 22.3 µM; TGI [9]: 26.1 µM; TGI [10]: 84.4 µM; TGI [11]: 29.2 µM; TGI [12]: 22.6 µM; TGI [13]: 22.4 µM; TGI [14]: 21.7 µM; TGI [15]: 44.1 µM; TGI [16]: 32.9 µM; TGI [17]: 37.6 µM; TGI [18]: 28.1 µM; TGI [19]: 16.4 µM; TGI [20]: 51.4 µM; TGI [21]: 31.2 µM; TGI [22]: 25.3 µM; TGI [23]: 29.6 µM; TGI [24]: 31 µM; TGI [25]: 28.5 µM; TGI [26]: 18.6 µM; TGI [27]: 18.6 µM; TGI [28]: 26.4 µM; TGI [29]: 4.83 µM; TGI [30]: 28.9 µM; TGI [31]: 37.5 µM; TGI [32]: 46.2 µM; TGI [33]: 19.3 µM; TGI [34]: 20.3 µM; TGI [35]: 28.9 µM; TGI [36]: 22.3 µM; TGI [37]: 26.6 µM; TGI [38]: 26.9 µM; TGI [39]: 28.1 µM; TGI [40]: 23.3 µM; TGI [41]: 27.3 µM; TGI [42]: 29.5 µM; TGI [43]: 30.8 µM; TGI [44]: 40.5 µM; TGI [45]: 25.9 µM; TGI [46]: 19.9 µM; TGI [47]: 35.6 µM; TGI [48]: 23.4 µM; TGI [49]: 17.1 µM

Question: Which results are given for `C#CCSc1nc(N)c2ncn(C3OC(CO)C(O)C3O)c2n1` (stereo not given)?
Answer: TGI [1]: > 100 µM; TGI [2]: > 100 µM; TGI [3]: > 100 µM; TGI [4]: > 100 µM; TGI [5]: > 100 µM; TGI [6]: > 100 µM; TGI [7]: > 100 µM; TGI [8]: > 100 µM; TGI [9]: > 100 µM; TGI [10]: > 100 µM; TGI [11]: > 100 µM; TGI [12]: > 100 µM; TGI [13]: > 100 µM; TGI [14]: > 100 µM; TGI [16]: > 100 µM; TGI [18]: > 100 µM; TGI [19]: > 100 µM; TGI [20]: > 100 µM; TGI [50]: > 100 µM; TGI [51]: > 100 µM; TGI [22]: > 100 µM; TGI [24]: > 100 µM; TGI [25]: > 100 µM; TGI [26]: > 100 µM; TGI [28]: > 100 µM; TGI [52]: > 100 µM; TGI [29]: > 100 µM; TGI [53]: > 100 µM; TGI [30]: > 100 µM; TGI [31]: > 100 µM; TGI [32]: > 100 µM; TGI [33]: > 100 µM; TGI [34]: > 100 µM; TGI [35]: > 100 µM; TGI [37]: > 100 µM; TGI [38]: > 100 µM; TGI [40]: > 100 µM; TGI [41]: > 100 µM; TGI [43]: > 100 µM; TGI [44]: > 100 µM; TGI [45]: > 100 µM; TGI [54]: > 100 µM; TGI [46]: > 100 µM; TGI [47]: > 100 µM; TGI [49]: > 100 µM; TGI [55]: > 100 µM
